This note sets out measurements from patent US20260083704A1, “LXR MODULATORS WITH BICYCLIC CORE MOIETY FOR TREATING DYSLIPIDEMIAS” (OrsoBio, Inc., priority 2022, published 2026).

The structures appear in SMILES notation. Where two headings read alike, the source gives them in different places.

The AUC is concentration integrated over time. A low value points to low exposure. In general, Tmax refers to the time from dosing to the highest level.

In data set [1] the test system is DIO mice. In words: Two-step hyperinsulinemic-euglycemic clamp in DIO mice. The format is in vivo. The following applies: 5 mg/kg once daily oral. The text has this:
Data are shown as mean±SD. N=5-11 animals per group. *p≤0.05, **p≤0.01, ***p≤0.001, ****p≤0.0001 vs. vehicle, unless otherwise indicated; ^#p≤0.05 pioglitazone vs. vehicle. Repeated measures Two-way ANOVA with Dunnett's multiple comparisons test (FIG. 7A, FIG. 7D), Two-way ANOVA with Dunnett's multiple comparisons test (FIG. 7B, FIG. 7C). EDL=extensor digitorum longus, GIR=glucose infusion rate, HGP=hepatic glucose production, iWAT=inguinal white adipose tissue.
The effects of chronic dosing of Compound 21/3 and Compound pre-6/3 were evaluated in DIO mice and HFD-fed ZDF rats, respectively. Briefly, C57BL/6 mice were fed a HFD for 16 weeks prior to treatment with Compound pre-6/3 (5 mg/kg) or pioglitazone (30 mg/kg; positive control) once daily by oral gavage. After four weeks of treatment, a two-step hyperinsulinemic-euglycemic clamp along with the infusion of radiotracers to monitor glucose disposal and hepatic glucose production was performed. […] These changes were associated with a reduction in hepatic glucose production in the Compound pre-6/3-treated mice, more evident during the 8 mU/kg/min insulin infusion (FIG. 7B).

Data set [2] deals with humanized liver chimeric PXB mice. In words: Humanized liver chimeric PXB mouse model. The format is in vivo. The conditions noted are these: 1 mg/kg once daily oral, 8 days. How it is done:
Data are shown as mean±SD. N=4-5 animals per group. *p≤0.05, **p≤0.01, ***p≤0.001, ****p≤0.0001 Mann-Whitney test.
Since features of cholesterol metabolism differ between rodents and humans, the humanized liver chimeric PXB® mouse model was utilized to further explore the effects of Compound 21/3 on lipid metabolism in a more relevant nonclinical model (Tateno, Yoshizane et al. 2004). Briefly, PXB mice were treated with either vehicle or Compound 21/3 (1 mg/kg once daily by oral gavage) for 8 days. The pharmacokinetics (PK) data from this study are presented herein. […] Specifically, Compound 21/3 reduced the expression of the cholesterol synthesis gene, HMGCR, as well as in genes that reduce the hepatic uptake of LDL-C (PCSK9, IDOL) and conversion of cholesterol to bile acids (CYP7A1). As expected, marked reductions in ANGPTL3 and DNL-associated genes (SREBP1C, ACACA, FASN, SCD1) were also observed.

Data set [3] concerns HFD-fed SD rats. In words: HFD-fed Sprague-Dawley (SD) rat model. The format is in vivo. The text has this:
Data are shown as mean±SD. N=5-8 animals per group. *p≤0.05, **p≤0.01, ***p≤0.001, ****p≤0.0001 vs. vehicle, unless otherwise indicated; ^#p≤0.05 pioglitazone vs. vehicle Kruskal-Wallis (non-parametric One-Way ANOVA) test with Dunn's multiple comparisons test (FIG. 4A, FIG. 4B, FIG. 4D), repeated measures two-way ANOVA with Dunnett's multiple comparisons test (FIG. 4C), two-way ANOVA with Sidak's multiple comparisons test (FIG. 4E), Mann-Whitney test (FIG. 4F-G).
Data are shown as mean±SD. N=5-8 animals per group. *p≤0.05, **p≤0.01, ***p≤0.001, ****p≤0.0001 vs. vehicle, unless otherwise indicated; ^#p≤0.05 pioglitazone vs. vehicle repeated measures two-way ANOVA with Dunnett's multiple comparisons test (FIG. 5A, FIG. 5C, FIG. 5D), Kruskal-Wallis (non-parametric one-way ANOVA) test with Dunn's multiple comparisons test (FIG. 5B, FIG. 5E).
The efficacy of Compound 21/3 was evaluated in three dysmetabolic rodent models including DIO mice, HFD-fed ZDF rats, and HFD-fed SD rats (FIG. 4 and FIG. 5). Briefly, DIO mice were fed a HFD (60% kcal from fat) for 14 weeks and treated with Compound 21/3 (0.3 and 1 mg/kg once daily by oral gavage) for three weeks, while ZDF and SD rats were fed HFD for two weeks prior to treatment with Compound 21/3 (0.1 and 1 mg/kg once daily by oral gavage) for two or three weeks, respectively.

The nature of data set [4]: Phase 1 study, MAD cohorts: plasma pharmacokinetics. The format is in vivo, human. The following applies: healthy subjects; for AUC / Cmax / Tmax / half-life: both sexes, human, plasma, oral. How it is done:
A double-blind, placebo-controlled, single- and multiple-ascending dose FIH Phase 1 study to evaluate the safety, tolerability, PK, and PD of Compound 21/3 in healthy adult subjects was performed. A total of up to 150 subjects were enrolled, including 100 subjects in Parts A and B, and up to 50 subjects in adaptive cohorts in Part C. Within each cohort, 10 subjects were randomized, including 8 subjects randomized to Compound 21/3 and 2 subjects to PTM (placebo-to-match). In single-dose cohorts in Parts A and in any Part C cohort evaluating a higher total daily dose than previously evaluated, safety and tolerability data collected through Day 2 from two sentinel subjects, one randomized to Compound 21/3 and one to PTM, were evaluated prior to dosing of the remaining subjects in each cohort.
Intensive PK sampling over 72 h postdose on Day 1 (SAD and MAD) and Day 14 (MAD) was performed. Compound 21/3 plasma concentrations were determined using validated liquid chromatography-tandem mass spectrometry assay. PK parameters were estimated via noncompartmental methods using Pheonix® WinNonlin® 6.2.1 and 8.3.4 (Certara, LP, Princeton, NJ).
Part B evaluated the safety, tolerability, PK, and PD of multiple-ascending doses of oral Compound 21/3 or placebo under fed conditions. Part B will proceed in up to 5 dose-escalation cohorts and will be governed by a review of safety, tolerability, and any available and relevant PK and/or PD data, and study-specific stopping criteria.

Turning to `N#Cc1cccc(C#N)c1-c1c(-c2cccc(-c3ccc(C(=O)O)cc3Cl)c2)n(S(=O)(=O)c2ccc(C(F)F)cc2)c2ccc(F)cc12` [pre-6/3], in data set [1] (end of the clamp), the “glucose utilization by muscle versus vehicle” value was “significantly higher”. Besides, the “glucose infusion rate versus vehicle” value in data set [1] (four weeks, insulin infusion 8 and 18 mU/kg/min) is “significantly higher”. Also, the hepatic glucose production entry in data set [1] (four weeks, more evident at 8 mU/kg/min) was “reduction”.
For `N#Cc1cccc(C#N)c1-c1c(-c2cccc(-c3ccc(C(=O)NCC(=O)O)cc3Cl)c2)n(S(=O)(=O)c2ccc(C(F)F)cc2)c2ccc(F)cc12` [Compound 21/3], the “hepatic TG and TC content” value in data set [2] is recorded as “trended to reduce”. Further, the “hepatic expression of genes involved in the metabolism of cholesterol and TG” value in data set [2] (relative to vehicle) is listed as “significantly reduced”. For the same molecule, the “liver expression of DNL genes (Srebp1c, Fasn, Acaca, Scd1)” value in data set [3] (0.1 and 1 mg/kg once daily oral) is listed as “dose-dependently reduced”. The “reduction of plasma TG compared with vehicle” value in data set [3] (highest dose 1 mg/kg, p≤0.05) was determined as 59%. Further, the “maximal reduction of liver TG versus vehicle” value in data set [3] (p=0.07) is 42%. Also, the AUC is 2.7 ng·h/mL in data set [4] (2 mg, MAD Day 14, 2 mg, fed, mean); 19 ng·h/mL in data set [4] (6 mg, MAD Day 14, 6 mg (fasted), mean); 6.05 ng·h/mL in data set [4] (6 mg, MAD Day 14, 6 mg, fed, mean); 14.6 ng·h/mL in data set [4] (12 mg, MAD Day 14, 12 mg, fed, mean). Moreover, the Cmax in data set [4] (2 mg, MAD Day 14, 2 mg, fed, mean, read-out: Cmax) was 0.95 ng/mL; in data set [4] (6 mg, MAD Day 14, 6 mg (fasted), mean, read-out: Cmax), 6.37 ng/mL; in data set [4] (6 mg, MAD Day 14, 6 mg, fed, mean, read-out: Cmax) it was 2.16 ng/mL; in data set [4] (12 mg, MAD Day 14, 12 mg, fed, mean, read-out: Cmax) it was 4.85 ng/mL; in data set [4] (Phase 1 summary (SAD and MAD), read-out: maximal plasma concentrations (Cmax)), below 7 ng/mL. In addition, the Tmax in data set [4] (2 mg, MAD Day 14, 2 mg, fed, median) was 4 h; in data set [4] (6 mg, MAD Day 14, 6 mg (fasted), median) it was 2 h; in data set [4] (6 mg, MAD Day 14, 6 mg, fed, median), 3.5 h; in data set [4] (12 mg, MAD Day 14, 12 mg, fed, median), 3.5 h; in data set [4] (Phase 1 summary (SAD and MAD)), 2 to 4 h. The half-life in data set [4] (2 mg, MAD Day 14, 2 mg, fed, median, read-out: t1/2 (converted)) was 1.43 h; in data set [4] (6 mg, MAD Day 14, 6 mg (fasted), median, read-out: t1/2 (converted)), 1.46 h; in data set [4] (6 mg, MAD Day 14, 6 mg, fed, median, read-out: t1/2 (converted)), 1.51 h; in data set [4] (12 mg, MAD Day 14, 12 mg, fed, median, read-out: t1/2 (converted)) it was 1.74 h; in data set [4] (MAD, read-out: steady-state t1/2), 1.4 to 2.6 h. Also, the “steady-state t1/2” value in data set [4] (MAD) is 1.5 to 2.5 h. Moreover, in data set [4] (MAD, fed dosing), the “AUC and Cmax lower on Day 14 vs Day 1” value was 25-50%. The “dose proportionality of AUC and Cmax” value in data set [4] (MAD, fed dosing) is recorded as “increased less than dose proportionally”.
